Legend:
Assay in all cases: combination Emax (second highest fraction inhibited in the dose matrix, 72 h); higher = more inhibition; extreme values may be limits of the assay
[1] = system: HCC2157 (Breast Carcinoma)
Method in brief: (§1)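 Cell lines grown in DMEM/F12 or RPMI with 10% FBS were plated in 1536-well plates and held 24 hours at 37°C, 5% CO2 before 72 hours of exposure to two-drug dose matrices, with DMSO typically at 0.2%. CellTiter-Glo 2.0 luminescence gave viability, which was converted to inhibition. Vehicle wells were set to 0 and blank wells to 1. Combination Emax is the second-highest inhibition in the matrix, and Bliss excess is the observed combination effect minus the expected EA + EB − EA·EB, where EA and EB are the single-agent effects.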

[2] = system: SW1088 (Low Grade Glioma)
Method in brief: as §1

[3] = system: COR-L95 (Small Cell Lung Carcinoma)
Method in brief: as §1

[4] = system: CFPAC-1 (Pancreatic Carcinoma)
Method in brief: as §1

[5] = system: TGBC24TKB (Biliary Tract Carcinoma)
Method in brief: as §1

[6] = system: SUIT-2 (Pancreatic Carcinoma)
Method in brief: as §1

[7] = system: LU-99A (Non-Small Cell Lung Carcinoma)
Method in brief: as §1

[8] = system: SNU-C5 (Colorectal Carcinoma)
Method in brief: as §1

[9] = system: SW1783 (Low Grade Glioma)
Method in brief: as §1

[10] = system: KARPAS-620 (Plasma Cell Myeloma)
Method in brief: as §1

CAL-78 (Chondrosarcoma) = system: CAL-78 (Chondrosarcoma)
Method in brief: as §1

[11] = system: COR-L23 (Non-Small Cell Lung Carcinoma)
Method in brief: as §1

J82 (Bladder Carcinoma) = system: J82 (Bladder Carcinoma)
Method in brief: as §1

[12] = system: HPAC (Pancreatic Carcinoma)
Method in brief: as §1

[13] = system: HT-29 (Colorectal Carcinoma)
Method in brief: as §1

ES7 (Ewing's Sarcoma) = system: ES7 (Ewing's Sarcoma)
Method in brief: as §1

[14] = system: TE-5 (Esophageal Squamous Cell Carcinoma)
Method in brief: as §1

[15] = system: MDA-MB-231 (Breast Carcinoma)
Method in brief: as §1

[16] = system: G-292-Clone-A141B1 (Osteosarcoma)
Method in brief: as §1

[17] = system: NALM-6 (B-Lymphoblastic Leukemia)
Method in brief: as §1

SMILES: CN(CCO)CC[C@H](CSc1ccccc1)Nc1ccc(S(=O)(=O)NC(=O)c2ccc(N3CCC([C@@H](O)c4ccccc4-c4ccc(Cl)cc4)CC3)cc2)cc1S(=O)(=O)C(F)(F)F [AZD4320] + C[C@@H]1COCCN1C2=NC(=NC(=C2)C3(CC3)[S@](=N)(=O)C)C4=C5C=CNC5=NC=C4 [AZD6738] (first compound max 1 µM, 7x7, partner max 10 µM)
- combination Emax [1]: 0.979
- combination Emax [2]: 0.586
- combination Emax [3]: 1
- combination Emax [4]: 0.724
- combination Emax [5]: 0.891
- combination Emax [6]: 0.522
- combination Emax [7]: 0.838
- combination Emax [8]: 0.854
- combination Emax [9]: 0.669
- combination Emax [10]: 1
- combination Emax (CAL-78 (Chondrosarcoma)): 0.861
- combination Emax [11]: 0.621
- combination Emax (J82 (Bladder Carcinoma)): 0.524
- combination Emax [12]: 0.897
- combination Emax [13]: 0.936
- combination Emax (ES7 (Ewing's Sarcoma)): 1
- combination Emax [14]: 0.77
- combination Emax [15]: 0.849
- combination Emax [16]: 0.754
- combination Emax [17]: 1

SMILES: CN(CCO)CC[C@H](CSc1ccccc1)Nc1ccc(S(=O)(=O)NC(=O)c2ccc(N3CCC([C@@H](O)c4ccccc4-c4ccc(Cl)cc4)CC3)cc2)cc1S(=O)(=O)C(F)(F)F [AZD4320] + C=CCn1c(=O)c2cnc(Nc3ccc(N4CCN(C)CC4)cc3)nc2n1-c1cccc(C(C)(C)O)n1 [AZD1775] (first compound max 1 µM, partner max 1 µM)
- combination Emax [1]: 0.969
- combination Emax [2]: 0.391
- combination Emax [3]: 1
- combination Emax [4]: 0.699
- combination Emax [5]: 0.682
- combination Emax [6]: 0.491
- combination Emax [7]: 0.762
- combination Emax [8]: 0.619
- combination Emax [9]: 0.531
- combination Emax [10]: 1
- combination Emax (CAL-78 (Chondrosarcoma)): 0.846
- combination Emax [11]: 0.656
- combination Emax (J82 (Bladder Carcinoma)): 0.117
- combination Emax [12]: 1
- combination Emax [13]: 0.965
- combination Emax (ES7 (Ewing's Sarcoma)): 0.935
- combination Emax [14]: 0.663
- combination Emax [15]: 0.716
- combination Emax [16]: 0.559
- combination Emax [17]: 1

SMILES: Cc1c2c(nn1C)CSCc1cc(n(C)n1)CSc1cc(c3ccccc3c1)OCCCc1c(C(=O)O)n(C)c3c-2c(Cl)ccc13 [AZD5991] + C[C@@H]1COCCN1C2=NC(=NC(=C2)C3(CC3)[S@](=N)(=O)C)C4=C5C=CNC5=NC=C4 [AZD6738] (first compound max 1 µM, 7x7, partner max 10 µM)
- combination Emax [1]: 0.998
- combination Emax [2]: 0.565
- combination Emax [3]: 0.638
- combination Emax [4]: 0.555
- combination Emax [5]: 0.672
- combination Emax [6]: 0.424
- combination Emax [7]: 0.572
- combination Emax [8]: 0.795
- combination Emax [9]: 0.441
- combination Emax [10]: 1
- combination Emax (CAL-78 (Chondrosarcoma)): 0.796
- combination Emax [11]: 0.57
- combination Emax (J82 (Bladder Carcinoma)): 0.389
- combination Emax [12]: 0.683
- combination Emax [13]: 0.836
- combination Emax (ES7 (Ewing's Sarcoma)): 0.852
- combination Emax [14]: 0.494
- combination Emax [15]: 0.546
- combination Emax [16]: 0.281
- combination Emax [17]: 0.895

SMILES: C[C@@H]1COCCN1c1cc(C2([S@](C)(=N)=O)CC2)nc(-c2ccnc3[nH]ccc23)n1 [AZD6738] + O=C(c1cc(Cc2n[nH]c(=O)c3ccccc23)ccc1F)N1CCN(C(=O)C2CC2)CC1 [Olaparib] (first compound max 10 µM, 7x7, partner max 10 µM)
- combination Emax [1]: 0.907
- combination Emax [2]: 0.501
- combination Emax [3]: 0.517
- combination Emax [5]: 0.693
- combination Emax [6]: 0.676
- combination Emax [7]: 0.712
- combination Emax [8]: 0.696
- combination Emax [9]: 0.407
- combination Emax [10]: 0.544
- combination Emax (CAL-78 (Chondrosarcoma)): 0.616
- combination Emax [11]: 0.42
- combination Emax (J82 (Bladder Carcinoma)): 0.344
- combination Emax [12]: 0.416
- combination Emax [13]: 0.799
- combination Emax (ES7 (Ewing's Sarcoma)): 0.962
- combination Emax [14]: 0.442
- combination Emax [15]: 0.572
- combination Emax [16]: 0.283
- combination Emax [17]: 0.976

SMILES: CCc1c2c(nc3ccc(O)cc13)-c1cc3c(c(=O)n1C2)COC(=O)[C@]3(O)CC [SN-38] + O=C(c1cc(Cc2n[nH]c(=O)c3ccccc23)ccc1F)N1CCN(C(=O)C2CC2)CC1 [Olaparib] (first compound max 0.3 µM, 7x7, partner max 10 µM)
- combination Emax [2]: 0.434
- combination Emax [3]: 0.85
- combination Emax [4]: 0.831
- combination Emax [5]: 0.472
- combination Emax [6]: 0.728
- combination Emax [7]: 0.649
- combination Emax [9]: 0.862
- combination Emax [10]: 0.25
- combination Emax [11]: 0.675
- combination Emax (J82 (Bladder Carcinoma)): 0.861
- combination Emax [12]: 0.246
- combination Emax [13]: 0.936
- combination Emax (ES7 (Ewing's Sarcoma)): 1
- combination Emax [14]: 0.758
- combination Emax [15]: 0.681
- combination Emax [16]: 0.179
- combination Emax [17]: 0.99

SMILES: COc1nnc2ccc(N3CCC(c4ccc(OCCN5CCN(C)C(=O)[C@H]5C)cc4)CC3)nn12 [AZD5153] + CN(CC[C@H](CSC1=CC=CC=C1)NC2=C(C=C(C=C2)S(=O)(=O)NC(=O)C3=CC=C(C=C3)N4CCC(CC4)[C@H](C5=CC=CC=C5C6=CC=C(C=C6)Cl)O)S(=O)(=O)C(F)(F)F)CCO [AZD4320] (first compound max 1 µM, 7x7, partner max 1 µM)
- combination Emax [1]: 1
- combination Emax [4]: 0.401
- combination Emax [5]: 0.932
- combination Emax [6]: 0.306
- combination Emax [7]: 0.937
- combination Emax [8]: 0.569
- combination Emax (CAL-78 (Chondrosarcoma)): 0.8
- combination Emax [11]: 0.424
- combination Emax (J82 (Bladder Carcinoma)): 0.397
- combination Emax [12]: 0.713
- combination Emax [13]: 0.774
